This is an account of results in paper PMC8630742, “Citrullinated Epitopes Identified on Tumour MHC Class II by Peptide Elution Stimulate Both Regulatory and Th1 Responses and Require Careful Selection for Optimal Anti-Tumour Responses” (Frontiers in Immunology, 2021).

In one assay the test system is HLA-DP4. Description: HLA-DP4 competition binding assay against biotinylated Hepatitis B peptide (membrane preps, ELISA). The arrangement: species or system human. Particulars: Figure 1D; for binding of the reference Hepatitis B peptide in presence of competitor (% maximal binding): equal quantity of non-biotinylated competitor and 10 µg biotinylated HepB 181-193, B16HHDII/cDP4 membrane preps, 4 hrs 37°C, streptavidin ELISA, anti-HLA-DP; for competition with the Hepatitis B reference peptide: equal quantity of competitor and 10 µg biotinylated HepB 181-193. As to the method: Binding of peptides to HLA-DP4 was assessed by extraction of membrane fractions from B16HHDII/cDP4 cells using Mem-PER™ Plus Membrane Protein Extraction Kit (Thermo Fisher-Scientific) according to manufacturer’s instructions. Membrane preps containing HLA-DP4 were incubated with 10 µg biotinylated peptide for 4hrs at 37°C. For competition assays, the membrane preps and 10 µg biotinylated Hepatitis B peptide were pre-incubated in the presence of specified concentrations of non-biotinylated peptides. Biotinylated peptide bound to HLA-DP4 was detected by capture onto streptavidin-coated ELISA plates and detected with anti-HLA-DP antibody clone B7/21 (Leinco Technologies Inc, USA) and anti-mouse IgG3 HRP antibody (Invitrogen, UK). Binding was quantified with TMB substrate and absorbance read at 405nm wavelength.
Figure 1 Citrullinated peptide combination vaccination provides poor tumour therapy in HLA-DP4 transgenic mice. HLA-DP4 transgenic mice were challenged with B16 cells constitutively expressing DP4 (A) or expressing DP4 under an IFNγ inducible promoter (B) and four days later mice were immunised with combination of 10ug each of seven eluted peptides and tumour growth and survival monitored. N=10/group. (C), HLA-DP4 transgenic mice were immunised with seven peptide combination vaccine at days 1, 8 and 15 and immune responses monitored at day 21 by IFNγ ELISpot assay. Results are representative of at least two independent experiments in which n=3. (D), Competition of equal quantity of non-biotinylated competitor peptides in the presence of 10µg biotinylated HepB 181-193 peptide. Results are representative of at least two independent experiments.
In general terms: In an ELISA, binding on a coated surface is turned into a signal by an enzyme label.

Assay [1] relates to B16/HHDII/cDP4 (B16cDP4) cells. In words: Tumour therapy, B16cDP4 melanoma in HLA-DP4 transgenic mice. Type of assay: in vivo, mouse. Conditions: for tumour free survival: 25ug individual peptide with CpG/MPLA, n=10/group, Figure 4A; for overall survival at day 50 / tumour growth: 25ug individual peptide, compared to unimmunised control, Figure 4. As to the method:
(§1) For all studies, the mice were randomised into different groups but not blinded to the investigators. Peptides were dissolved in PBS and then emulsified with CpG (ODN 1826, Invivogen) and MPLA (Invivogen) and delivered at 10 or 25µg dose unless stated otherwise. Adjuvants were used at 5µg/dose. Peptides in adjuvant were injected subcutaneously at the base of the tail. Mice were immunised on day 1, 8 and 15 and spleens were removed for analysis at day 21.
For the tumour therapy studies, HHDII/DP4 transgenic mice were challenged by subcutaneous injection with 5 × 105 B16/HHDII/cDP4 (B16cDP4) cells or 1 × 105 B16/HHDII/iDP4 (B16iDP4) cells subcutaneously on the flank at day 1 and then immunised on days 4, 11 and 18. Tumour growth was monitored at 3–4 days intervals and mice were humanely euthanised once tumour approached 15mm diameter.

A further assay concerns splenocytes (IFNγ). In words: Ex vivo IFNγ ELISpot assay on splenocytes of immunised mice. Particulars: for IFNγ response at lower (10µg) immunising peptide dose / IFNγ response to immunising peptide: HLA-DP4 transgenic mice; for IFNγ response at lower (10µg) immunising peptide dose: 10µg single peptide, Figure 2F; for IFNγ response to immunising peptide: 25µg single peptide with CpG and MPLA days 1, 8, 15, splenocytes day 21, 10 µg/mL peptide, Figure 2A; for IFNγ response in presence of CD4 blocking antibody: anti-CD4 OKT4 20µg/ml, C; for avidity of the immune response: titrating quantities of peptide in IFNγ ELISpot, Figure 2E. Type of assay: in vivo, mouse. How it is done:
as §1
ELISpot assays were performed using murine IFNγ and IL-10 capture and detection reagents according to the manufacturer’s instructions (Mabtech). In brief, the specific cytokine antibodies were coated onto wells of 96-well Immobilin-P plates. […] (RPMI medium 1640 (GIBCO/BRL) supplemented with 10% FCS (Sigma), 2mM L-glutamine (Sigma) and sodium bicarbonate buffered with additional 20mM HEPES (Sigma) and 50 µM 2-mercaptoethanol (2ME, Thermofisher). 5x10^5/well splenocytes were added in quadruplicate wells, plates were incubated for 40 hours at 37 °C/5% CO2. Cells with culture media only were added as negative control and cells cultured with 5 µg/ml Lipopolysaccharide (LPS, Sigma) were used as a positive control. Where relevant anti-CD4 (human clone OKT4, BioXcell) or CD8 (mouse clone 2.43, BioXcell) blocking antibodies were added to splenocytes at 20µg/ml for 15 minutes prior to stimulation with peptide. After incubation, captured cytokine was detected by biotinylated cytokine specific antibody and developed using streptavidin alkaline phosphatase and chromogenic substrate. Spots were analysed and counted using an automated plate reader (Cellular Technologies Ltd). Results were represented as spots/million splenocytes.

In another assay the test system is splenocytes (IL-10). Description: Ex vivo IL-10 ELISpot assay on splenocytes of immunised mice. The assay is classed as in vivo, mouse. Particulars: for IL-10 response to immunising peptide: HLA-DP4 transgenic mice, 25ug single peptide with CpG/MPLA days 1, 8, 15, day 21, Figure 3A. As to the method:
as §1
ELISpot assays were performed using murine IFNγ and IL-10 capture and detection reagents according to the manufacturer’s instructions (Mabtech). In brief, the specific cytokine antibodies were coated onto wells of 96-well Immobilin-P plates. Synthetic peptides (Genescript) were used at 10 µg/mL and diluted in culture media (RPMI medium 1640 (GIBCO/BRL) supplemented with 10% FCS (Sigma), 2mM L-glutamine (Sigma) and sodium bicarbonate buffered with additional 20mM HEPES (Sigma) and 50 µM 2-mercaptoethanol (2ME, Thermofisher). 5x10^5/well splenocytes were added in quadruplicate wells, plates were incubated for 40 hours at 37 °C/5% CO2. Cells with culture media only were added as negative control and cells cultured with 5 µg/ml Lipopolysaccharide (LPS, Sigma) were used as a positive control. Where relevant anti-CD4 (human clone OKT4, BioXcell) or CD8 (mouse clone 2.43, BioXcell) blocking antibodies were added to splenocytes at 20µg/ml for 15 minutes prior to stimulation with peptide. After incubation, captured cytokine was detected by biotinylated cytokine specific antibody and developed using streptavidin alkaline phosphatase and chromogenic substrate. Spots were analysed and counted using an automated plate reader (Cellular Technologies Ltd). Results were represented as spots/million splenocytes.

The mark [2] stands for this setting: mice immunised with 25ug peptide, Figure 2B.
The mark [3] stands for this setting: mice immunised with 25ug peptide.

As to “EPKSSCYNTHEK-cit-IYQSNMLN-cit-YLI [citGRI, Synthetic citrullinated peptide Glutamate receptor ionotropic 316-340]”, the “binding of the reference Hepatitis B peptide in presence of competitor (% maximal binding)” value (shortened to “binding … (% maximal binding)”) in the assay with HLA-DP4 is 40-50%. In addition, in assay [1], the tumour free survival is recorded as 70% and the “overall survival at day 50 / tumour growth” value is listed as “significant overall survival”. Besides, in the assay on splenocytes (IFNγ), the “IFNγ response at lower (10µg) immunising peptide dose” value was “failed to stimulate an immune response” and the “IFNγ response to immunising peptide” value is reported as “strong IFNγ responses”. In addition, in the assay with splenocytes (IFNγ) (setting [2]), the “IFNγ response in presence of CD4 blocking antibody” value is “efficiently blocked”. Further, the “avidity of the immune response” value in the assay on splenocytes (IFNγ) (setting [3]) is on record as 10^-7 M. Besides, the “IL-10 response to immunising peptide” value in the assay on splenocytes (IL-10) is on record as “some IL-10-producing cells”.
With “EPKSSCYNTHEKRIYQSNMLNRYLI [GRI, synthetic native peptide Glutamate receptor ionotropic 316-340]”, the “IFNγ response to unmodified peptide in mice immunised with the citrullinated peptide” value in the assay on splenocytes (IFNγ) (mice immunised with 25ug citGRI, Figure 2B) was “cross reactivity”.
Turning to “KRDVTLEAS-cit-ESSKP-cit-AVLKP-cit- [citSeThrePho, Synthetic citrullinated peptide Serine/threonine-protein phosphatase 2A 55 kDa regulatory subunit B gamma isoform 370-391]”, the “binding … (% maximal binding)” value in the assay on HLA-DP4 was 30-35%.
For “LEIY-cit-YTSFVPFTIPHSTTR [citCp450, Synthetic citrullinated peptide Cytochrome P450 1A2 373-392]”, the “binding … (% maximal binding)” value with HLA-DP4 is given as 40-50%. Moreover, in assay [1], the tumour free survival is recorded as 20% and the “overall survival at day 50 / tumour growth” value is “tumour growth similar to control”. Moreover, the “IFNγ response to immunising peptide” value in the assay on splenocytes (IFNγ) is on record as “absence of any detectable IFNγ response”. In addition, the “IL-10 response in HHDII/DR1 mice” value in the assay on splenocytes (IL-10) (HHDII/DR1 compared to HHDII/DP4 mice, Figure 3C) was “fail to be stimulated”. Further, the “IL-10 response to immunising peptide” value with splenocytes (IL-10) is on record as “strong IL-10 response”. In addition, the “IL-10 response in presence of CD4 blocking antibody” value in the assay with splenocytes (IL-10) (mice immunised with 25ug citCp450, did not reach significance, Figure 3B) was “reduction in response”. In addition, in the assay on splenocytes (IL-10) (seven peptide combination vaccine, Figure 3D), the “IL-10 response when delivered as part of the combination vaccine” value is “stimulated IL-10 responses”.
As to “MDEIDAIGG-cit-RFSEGTSADREIQ [cit26S-10B, Synthetic citrullinated peptide 26S protease regulatory subunit 10B 246-268]”, the “binding … (% maximal binding)” value with HLA-DP4 is recorded as 30-35%.
Still for that read-out and setting: the value for “ML-cit-CASGAEL-cit-QPPRDVPPDAR [cit5T4, Synthetic citrullinated peptide Trophoblast glycoprotein-like protein 40-61]” was 40-50%.
Still for that read-out and setting: for “NGQT-cit-EHALLAYTLGVKQLIVGVNK [citELO, Synthetic citrullinated peptide Elongation factor 1-alpha 1 130-154]” the value was 40-50%.
Consider “VFDWIRKERNQYGEVRV-cit-FNTYFFR [citMMP21, Synthetic citrullinated peptide Matrix metalloproteinase-21 337-360]”, for which the “binding … (% maximal binding)” value with HLA-DP4 is on record as 40-50%. For the same substance, in assay [1], the tumour free survival came to 90% and the “overall survival at day 50 / tumour growth” value is reported as “strong overall survival”. For the same substance, the “IFNγ response in HHDII/DR1 transgenic mice” value in the assay with splenocytes (IFNγ) (HHDII/DR1 mice, Figure 2D) is on record as “No responses”. Besides, in the assay with splenocytes (IFNγ), the “IFNγ response at lower (10µg) immunising peptide dose” value is given as “only the response to citMMP21 was observed” and the “IFNγ response to immunising peptide” value was “strong IFNγ responses”. Further, the “IFNγ response in presence of CD4 blocking antibody” value in the assay with splenocytes (IFNγ) (setting [2]) is given as “reduced”. For the same substance, the “IFNγ response in presence of CD8 blocking antibody” value with splenocytes (IFNγ) (anti-CD8 2.43 20µg/ml, mice immunised with 25ug peptide, Figure 2C) is given as “No significant blocking”. For the same substance, in the assay on splenocytes (IFNγ) (setting [3]), the “avidity of the immune response” value was 10^-8 M. For the same substance, the “IL-10 response to immunising peptide” value with splenocytes (IL-10) is listed as “some IL-10-producing cells”.
On to collagen [reference compound], for which the “competition with the Hepatitis B reference peptide” value in the assay with HLA-DP4 was “no competition”.
Consider fibrinogen [reference compound], for which the “competition with the Hepatitis B reference peptide” value in the assay on HLA-DP4 is recorded as “no competition”.
